# Patent US11696913B2, “Prolonged ectoparasite-controlling agent for animal” (MITSUI CHEMICALS AGRO, INC., priority 2017, dated 2023)
# Where two headings read alike, the source gives them in different places.
# Experiments:
# Laodelphax striatellus = test: Insecticidal testing against small brown planthopper; type: in vivo; conditions: 144 h, concentration 100 ppm, sprayed rice seedlings, after 6 days, read-out: pesticidal rate
# Outline: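 Acetone solution of compound at a set concentration sprayed onto rice seedlings, air-dried, then exposed to 10 planthoppers (one group). Held at 25° C; survival rate recorded after 6 days.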
# Ctenocephalides felis [1] = test: In vitro contact test with fleas; conditions: read-out: insecticidal activity; for pest or weed control at 0.04 µg/cm2, 0.04 µg/cm2: dose 0.04 μg/cm^2, dead or moribund fleas after 48 h; for pest or weed control at 0.2 µg/cm2, 0.2 µg/cm2: dose 0.2 μg/cm^2, dead or moribund fleas after 48 h; for pest or weed control at 1 µg/cm2, 1 µg/cm2: dose 1 μg/cm^2, dead or moribund fleas after 48 h
# Outline: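 Activity is the percentage of fleas dead or moribund at 48 h, judged by immobility or uncoordinated movement after tapping. Tubes were coated by evaporating acetone solutions (900 ppm gives 5 μg/cm^2), then held 5-10 adult fleas of both sexes at room temperature and ambient humidity.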
# Spodoptera litura = test: Insecticidal testing against common cutworm; type: in vivo; conditions: foliar, 144 h, concentration 100 ppm, cabbage leaf dip, second-stage larvae, after 6 days, read-out: pesticidal rate
# Excerpt: Insecticidal Testing Against Common Cutworm (Spodoptera litura)
# Ctenocephalides felis [2] = test: Ctenocephalides felis in-vitro feeding test with fleas (CTECFE oral); conditions: 48 hours, read-out: insecticidal feeding activity; for pest or weed control at 0.16 ppm: dose 0.16 ppm in citrated cattle blood; for pest or weed control at 0.8 ppm: dose 0.8 ppm in citrated cattle blood; for pest or weed control at 4 ppm: dose 4 ppm in citrated cattle blood; for pest or weed control at 0.032 ppm: dose 0.032 ppm in citrated cattle blood
# Outline: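 Scored as percent fleas killed (0–100%) 48 hours after feeding began. Compound, dissolved in DMSO and diluted into citrated cattle blood, was offered via a parafilm membrane to roughly 20 adult male and female C. felis at about 37° C.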
# Amblyomma americanum = test: In vitro contact test with hard ticks (Amblyomma americanum nymphs); conditions: read-out: acaricidal activity; for pest or weed control at 0.2 µg/cm2, 0.2 µg/cm2: dose 0.2 μg/cm^2, 48 h; for pest or weed control at 1 µg/cm2, 1 µg/cm2: dose 1 μg/cm^2, 48 h
# Outline: (§1)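 Acaricidal activity = % ticks dead or moribund after 48 h contact with acetone-deposited compound on vial walls (e.g., 900 ppm solution → 5 μg/cm^2). Ambient conditions for R. sanguineus, 21° C./85% rel. hum. for other species; heat challenge at 45-50° C. separated climbers from moribund ticks.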
# Rhipicephalus sanguineus = test: In vitro contact test with adult hard ticks (Rhipicephalus sanguineus); conditions: read-out: acaricidal activity; for pest or weed control at 0.04 µg/cm2, 0.04 µg/cm2: dose 0.04 μg/cm^2, 48 h; for pest or weed control at 0.2 µg/cm2, 0.2 µg/cm2: dose 0.2 μg/cm^2, 48 h; for pest or weed control at 1 µg/cm2, 1 µg/cm2: dose 1 μg/cm^2, 48 h
# Outline: as §1
# Plutella xylostella = test: Insecticidal testing against diamondback moth; type: in vivo; conditions: foliar, 144 h, concentration 100 ppm, cabbage leaf dip, third-stage larvae, after 6 days, read-out: pesticidal rate
# Excerpt: Insecticidal Testing Against Diamondback Moth (Plutella xylostella)
# [3] = tested on: Rhipicephalus (Boophilus) microplus; test: In vitro injection test with Rhipicephalus (Boophilus) microplus (BOOPMI Inj); conditions: 168 h, laid fertile eggs after 7 days, read-out: acaricidal activity; for pest or weed control at 32 ng: dose 0.032 μg/animal injected; for pest or weed control at 0.00016 mg: dose 0.16 μg/animal injected; for pest or weed control at 0.0008 mg: dose 0.8 μg/animal injected
# Outline: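 Five engorged adult females each get a 1 μl abdominal injection of compound dissolved and diluted in DMSO. Kept 7 days at 28° C./85% rel. hum.; percent activity rates egg laying and egg fertility (0% all fertile, 100% none laid or infertile).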
# Ixodes ricinus = test: In vitro contact test with adult hard ticks (Ixodes ricinus); conditions: read-out: acaricidal activity; for pest or weed control at 5 µg/cm2, 5 µg/cm2: dose 5 μg/cm^2, 48 h
# Outline: as §1
# Dermacentor variabilis = test: In vitro contact test with adult hard ticks (Dermacentor variabilis); conditions: read-out: acaricidal activity; for pest or weed control at 0.2 µg/cm2, 0.2 µg/cm2: dose 0.2 μg/cm^2, 48 h; for pest or weed control at 1 µg/cm2, 1 µg/cm2: dose 1 μg/cm^2, 48 h
# Outline: as §1
SMILES,pest or weed control at 100 ppm (Laodelphax striatellus),"pest or weed control at 0.2 µg/cm2, 0.2 µg/cm2 (Ctenocephalides felis [1])","pest or weed control at 1 µg/cm2, 1 µg/cm2 (Ctenocephalides felis [1])",pest or weed control at 100 ppm (Spodoptera litura),pest or weed control at 0.16 ppm (Ctenocephalides felis [2]),pest or weed control at 0.8 ppm (Ctenocephalides felis [2]),pest or weed control at 4 ppm (Ctenocephalides felis [2]),"pest or weed control at 0.2 µg/cm2, 0.2 µg/cm2 (Amblyomma americanum)","pest or weed control at 1 µg/cm2, 1 µg/cm2 (Amblyomma americanum)","pest or weed control at 0.04 µg/cm2, 0.04 µg/cm2 (Rhipicephalus sanguineus)","pest or weed control at 0.2 µg/cm2, 0.2 µg/cm2 (Rhipicephalus sanguineus)","pest or weed control at 1 µg/cm2, 1 µg/cm2 (Rhipicephalus sanguineus)",pest or weed control at 100 ppm (Plutella xylostella),pest or weed control at 32 ng [3],pest or weed control at 0.00016 mg [3],pest or weed control at 0.0008 mg [3],"pest or weed control at 5 µg/cm2, 5 µg/cm2 (Ixodes ricinus)","pest or weed control at 1 µg/cm2, 1 µg/cm2 (Dermacentor variabilis)","pest or weed control at 1 µg/cm2, 1 µg/cm2 (Ixodes ricinus; dose 1 μg/cm^2, 48 h)",pest or weed control at 0.032 ppm (Ctenocephalides felis [2]),also measured
O=C(Nc1cccc(C(=O)Nc2c(I)cc(C(F)(C(F)(F)F)C(F)(F)C(F)(F)F)cc2C(F)(F)F)c1F)c1ccc(F)nc1 (centres unmarked) [Compound 82],≥ 70%,95%,95%,≥ 70%,95%,95%,95%,90%,90%,90%,90%,90%,≥ 70%,100%,100%,100%,90%,90%,,,"pest or weed control at 0.04 µg/cm2, 0.04 µg/cm2 (Ctenocephalides felis [1]): 95%; pest or weed control at 6.4 ng ([3]; dose 0.0064 μg/animal injected): 100%; pest or weed control at 0.04 µg/cm2, 0.04 µg/cm2 (Dermacentor variabilis; dose 0.04 μg/cm^2, 48 h): 90%; pest or weed control at 0.2 µg/cm2, 0.2 µg/cm2 (Dermacentor variabilis): 90%"
O=C(Nc1cc(C(=O)Nc2c(I)cc(C(F)(C(F)(F)F)C(F)(F)F)cc2C(F)(F)F)ccc1F)c1ccc(F)cc1 [Compound 84],≥ 70%,,,≥ 70%,95%,95%,95%,90%,90%,90%,90%,90%,≥ 70%,100%,100%,100%,90%,90%,90%,,"pest or weed control at 0.2 µg/cm2, 0.2 µg/cm2 (Ixodes ricinus; dose 0.2 μg/cm^2, 48 h): 90%; pest or weed control at 0.2 µg/cm2, 0.2 µg/cm2 (Dermacentor variabilis): 90%"
"O=C(Nc1cccc(C(=O)Nc2c(I)cc(C(F)(C(F)(F)F)C(F)(F)F)cc2OC(F)(F)F)c1F)c1ccc(C(F)(F)F)nc1 [Compound 118, N-(2-fluoro-3-((2-iodo-4-(perfluoropropan-2-yl)-6-(trifluoromethoxy)phenyl)carbamoyl)phenyl)-6-(trifluoromethyl)nicotinamide]",≥ 70%,95%,95%,≥ 70%,95%,95%,95%,90%,90%,,90%,90%,≥ 70%,100%,100%,100%,90%,,90%,95%,"pest or weed control at 0.2 µg/cm2, 0.2 µg/cm2 (Ixodes ricinus; dose 0.2 μg/cm^2, 48 h): 90%"
CN(C(=O)c1ccc(F)cc1)c1cccc(C(=O)Nc2c(Cl)cc(C(F)(C(F)(F)F)C(F)(F)F)cc2C(F)(F)F)c1F [Compound 68],≥ 70%,95%,95%,≥ 70%,95%,95%,95%,,,90%,90%,90%,≥ 70%,,100%,100%,90%,90%,90%,95%,
O=C(Nc1cccc(C(=O)Nc2c(I)cc(C(F)(C(F)(F)F)C(F)(F)F)cc2[S+]([O-])C(F)(F)F)c1F)c1ccc(F)cc1 (centres unmarked) [Compound 65],≥ 70%,95%,95%,≥ 70%,95%,95%,95%,90%,90%,,90%,90%,≥ 70%,,100%,100%,90%,,90%,95%,
"O=C(Nc1cccc(C(=O)Nc2c(I)cc(C(F)(C(F)(F)F)C(F)(F)F)cc2C(F)(F)F)c1F)c1ccc(F)nc1 [Compound 116, 6-fluoro-N-(2-fluoro-3-((2-iodo-4-(perfluoropropan-2-yl)-6-(trifluoromethyl)phenyl)carbamoyl)phenyl)nicotinamide]",≥ 70%,95%,95%,≥ 70%,95%,95%,95%,90%,90%,,,90%,≥ 70%,100%,100%,100%,,,,95%,"pest or weed control at 0.04 µg/cm2, 0.04 µg/cm2 (Ctenocephalides felis [1]): 95%; pest or weed control at 0.0064 ppm (Ctenocephalides felis [2]; dose 0.0064 ppm in citrated cattle blood): 95%; pest or weed control at 0.2 µg/cm2, 0.2 µg/cm2 (Ixodes ricinus; 48 h): 90%; pest or weed control at 1 µg/cm2, 1 µg/cm2 (Ixodes ricinus; 48 h): 90%"
